From paper PMC12867150, “A fungi-derived cyclic peptide enhances Th9-mediated antitumor immunity by targeting ZAP70 and SREBP1” (The Journal of Clinical Investigation, 2025)
Values joined by “and” are separate entries in the source; they are usually repeats but may differ in a detail not shown here. Equal values may be shown once.

Legend:
IL9, IRF4, and SPI1 mRNA = assay: Quantitative PCR of IL9, IRF4 and SPI1 in human Th9 cells (Figure 8C); type: cell-based; settings: result in words
Experimental: For Th9 polarization, cultures were supplemented with IL-4 (10 ng/mL, PeproTech, catalog AF-200-04), TGF-β (1 ng/mL), and neutralizing anti–IFN-γ monoclonal antibody (10 μg/mL, clone B27, BioXcell, catalog BE0245). After 3 days of initial culture, cells were either collected for downstream assays or continued in extended culture with refreshed cytokines to maintain lineage commitment without antibodies. Th9 cells were collected at days 4, 5, and 6 for subsequent in vitro assays. For adoptive transfer studies, day 4–cultured Th9 cells were washed and prepared for intravenous injection.
Total RNA was extracted from T cells using RNAex Pro Reagent (AG, catalog AG21102) following the manufacturer’s instructions. First-strand complementary DNA (cDNA) was synthesized using the Hifair III 1st Strand cDNA Synthesis SuperMix (YEASEN, catalog 11137ES10). Quantitative real-time PCR (qRT-PCR) was conducted on a QuantStudio 3 Real-Time PCR System (Thermo Fisher Scientific) using ChamQ Universal SYBR qPCR Master Mix (Vazyme, catalog Q711-02) and gene-specific primers (Tsingke Biotech).
For normalization, mouse samples were referenced to Gapdh or Actb, and human samples were normalized to GAPDH. Relative gene expression was calculated using the ΔΔCt method. Primer sequences are listed in Supplemental Table 5.

Th9 cells = assay: Th9 differentiation, dose response, IL-9+ cells by flow cytometry (Figure 1D); type: cell-based, mouse; set-up: IL-9+ Th9 differentiation: unit not given here; settings: for IL-9+ Th9 differentiation: flow cytometry, individual replicates, n = 6
Experimental: IL-9 expression peaked at 10 μM, which was used for all subsequent experiments (Figure 1D).
Naive CD4^+ T cells were isolated from the spleens of C57BL/6J or CD45.1^+ OT-II mice using the MojoSort Mouse CD4 Naive T Cell Isolation Kit (BioLegend, catalog 480040), following the manufacturer’s protocol. Purified cells were cultured in RPMI-1640 medium supplemented with 10% FBS, 1% penicillin-streptomycin, and 0.1% β-mercaptoethanol (Gibco, catalog 21985023).
T cell polarization was initiated under plate-bound anti-CD3 (2 μg/mL, clone 17A2, BioXCell, catalog BE0002) and soluble anti-CD28 (1 μg/mL, clone 37.51, BioXCell, catalog BE0015-1) stimulation, with the addition of cytokines and neutralizing antibodies specific to each subset. For Th9 cells, these included IL-4 (10 ng/mL, Peprotech, catalog 400-04), TGF-β (1 ng/mL, EPOTO Biotech, catalog HF-2021), anti–IL-12 (5 μg/mL, clone C17.8, BioXCell, catalog BE0051), and anti–IFN-γ (10 μg/mL, clone XMG1.2, BioXCell, catalog BE0055); for Th1 cells, these included IL-12 (10 ng/mL, GenScript, catalog Z03211-50) and anti–IL-4 (5 μg/mL, clone 11B11, BioXCell, catalog BE0045); for Th2 cells, these included IL-4 (50 ng/mL), anti–IFN-γ (20 μg /mL), anti–IL-12 (5 μg/mL), Th17 cells: IL-6 (20 ng/mL, EPOTO Biotech, catalog MF-1006), TGF-β (1 ng/mL), IL-1β (10 ng/mL, Peprotech, catalog AF-211-11B), anti–IFN-γ (10 μg/mL), anti–IL-12 (5 μg/mL), and anti–IL-4 (5 μg/mL); and for Tregs, these included TGF-β (3 ng/mL). After 3 days of initial culture, cells were either collected for downstream assays or continued in extended culture with refreshed cytokines to maintain lineage commitment.
During the entire culture period, experimental groups were treated continuously with the indicated compound at the designated concentration, whereas control groups received an equal volume of DMSO.
BioLegend, Cat. No. 422301 or Mouse TruStain FcX™, BioLegend, Cat. No. 101319) for 10 minutes at 4°C. For surface marker detection, cells were stained with fluorochrome-conjugated monoclonal antibodies in 96-well V-bottom plates and incubated on ice for 30 minutes. After staining, cells were washed twice and resuspended in FACS buffer for analysis.
Prior to intracellular cytokine staining, cells were restimulated for 4 hours with PMA (Absin, Cat. No. abs9107), ionomycin (Sigma-Aldrich, Cat. No. I0634), and brefeldin A (MedChemExpress, Cat. No. HY-16592). For intracellular cytokine staining, cells were first surface-stained as described above, then fixed and permeabilized using the BD Cytofix/Cytoperm™ kit (BD Biosciences, Cat. No. 554714) according to the manufacturer ’s protocol. Intracellular proteins were stained with directly conjugated antibodies targeting IL-9, IL-17a, IL-4, IFN-γ, TNF-α, FOXP3, p-ZAP70, Perforin, and […]

Substance: anteiso-C15 Leu7 surfactin [EpA]
- IL9, IRF4, SPI1 mRNA (IL9, IRF4, and SPI1 mRNA): upregulated
- IL-9+ Th9 differentiation (Th9 cells; EpA 1 μM): 49.4 and 48.8 and 36.1 and 37.3 and 36.5 and 50.3
- IL-9+ Th9 differentiation (Th9 cells; EpA 10 μM): 82.5 and 80.4 and 79.9 and 77.4 (2×) and 76.3
- IL-9+ Th9 differentiation (Th9 cells; EpA 20 μM): 52.4 and 52.2 and 48.1 and 34.8 and 36 and 37.3
- concentration at which IL-9 expression peaked (Th9 cells; increasing concentrations of EpA): 10 µM
